Data on 6 compounds can be found in patent publication US20220251517A1.

Where a name gives a salt, the structure may show the parent alone.

Assay [1] has as its system arrhythmic cardiac microtissues (hiPSC-CM, cell line 1). Put plainly: Anti-arrhythmic drug testing on arrhythmic cardiac microtissues (optical mapping).
In assay [2] the test system is cardiac microtissues (hiPSC-CMs and human cardiac fibroblasts). Kind of assay: Arrhythmia induction in 3D cardiac microtissues (brightfield beat rate, optical mapping, stimulation capture). It counts as cell-based. Conditions: for presence of arrhythmias at endpoint: N=3. How it is done:
(§1) Tissues were allowed to compact for 7 days (Day -7 to 0) and treatment with either arrhythmogenic or control media conditions began on day 8 post-seeding (e.g. Day 0 in FIG. 1A). Arrhythmogenic media consisted of DMEM no glucose (ThermoFisher; 11966025), B-27 minus insulin supplement (1×; ThermoFisher; A1895602), HEPES (10 mM), L-carnitine (2 mM), creatine (5 mM), taurine (5 mM), MEM non-essential amino acids ([…]; ThermoFisher; 11140050), insulin-transferrin-selenium (1×; ThermoFisher; 41400045), galactose (10 mM), MBCD or MBCD-conjugated FAs as follows: hiPSC-CMs were treated with 100 μM FAs (linoleic acid 40 μM, oleic acid 40 μM, and palmitic acid 20 μM; MBCD 0.8 mM); and hESC-CMs were treated with 200 μM FAs (linoleic acid 80 μM, oleic acid 80 μM, and palmitic acid 40 μM; MBCD 1.6 mM)), glutamine (1 mM), and antibiotic-antimycotic. […] Instead, control media were supplemented with glucose (5 mM) and either FA vehicles (MBCD) at a lower dose of MBCD than the arrhythmogenic media (0.5 mM) or no MBCD (to confirm MBCD was the arrhythmogenic agent). Microtissues were treated by addition of media containing the components described above for up to 5 days and analyzed (e.g., imaging, tissue harvesting for isolation of RNA for transcriptomic analysis, fixing tissues for histopathological assessments/staining) at different time points to assess functional and transcriptomic parameters (see FIG. 1A).
During contractile force measurements, cardiac microtissues were electrically stimulated at 1 Hz and at their respective excitation threshold and videos of the 1:30 PDMS rods were taken for 15 seconds under 10× magnification with a Leica EC3 camera. For tissue compaction and spontaneous beating rate measurements, the tissues were not stimulated.
To assess the range of stimulation capture, microtissues were stimulated by a silver electrode at 3 Hz and 6V, and the distance from the electrode to which point the cardiac microtissue was not electrically captured by the delivered electrical impulse was marked as the range of stimulation capture (mm) (e.g., see FIG. 1H).

Assay [3] concerns 5-day arrhythmic cardiac microtissues. Put plainly: Arrhythmia reversal by removal of MBCD from media. It counts as cell-based, human. The note with it: 5 days arrhythmogenic media. Here is the method: as §1
Finally, it was reasoned that if MBCD was causing arrhythmias, removal of MBCD from culture media could reverse arrhythmias. To test this, 5-day arrhythmogenic tissues were cultured in control media for 5 additional days (see FIG. 6A). […] Arrhythmic tissues progressively regained synchronicity, allowing for the measurement of beat frequency.

Where [4] appears, read: isoproterenol added to lidocaine-treated arrhythmic tissues.
Setting [5] is: arrhythmic tissues, acute treatment 30 min, lidocaine 17.5 μg/mL.

With `CCCCc1oc2ccccc2c1C(=O)c1cc(I)c(OCCN(CC)CC)c(I)c1` [amiodarone, Amiodarone], the “electrophysiological changes (wavefronts per frame, conduction velocity, cycle length)” value in assay [1] (arrhythmic tissues, acute treatment 30 min, flecainide 10 μM, propranolol 4 μg/mL, amiodarone 30 μg/mL) is “did not produce any significant electrophysiological changes”.
As to `O=C[C@H](O)[C@@H](O)[C@@H](O)[C@H](O)CO` [galactose], in assay [2] (media containing only galactose (10 mM), no MBCD), the “presence of arrhythmias at endpoint” value is on record as “did not become arrhythmic”.
Consider `CC(C)NCC(O)c1ccc(O)c(O)c1` (stereo not drawn) [isoproterenol], for which, in assay [1] (setting [4]), the conduction velocity result is listed as “increase”, the cycle length entry is “reduction” and the “mean wavefronts per frame” value was “no change”.
For `CCN(CC)CC(=O)Nc1c(C)cccc1C` [lidocaine, Lidocaine HCl], in assay [1] (setting [5]), the conduction velocity result was “significantly decreased”, the cycle length duration entry was “increasing” and the “mean number of wavefronts per frame” value is “significant reduction”.
“BSA-ligated fatty acids: BSA-ligated fatty acids used in place of MBCD-conjugated fatty acids”: the induction of arrhythmogenesis entry in assay [2] (BSA-ligated fatty acids instead of MBCD-conjugated fatty acids) was “no effect”.
On to methyl-β-cyclodextrin [MBCD], for which, in assay [3] (then 5 days control media), the “Cx43 and N-Cad expression and co-localization after arrhythmia reversal” value was “significant increase”; the “passive force after arrhythmia reversal” value is “without significant changes”; the “synchronicity after removal of MBCD” value was “started beating synchronously”. The “contractile force of reverted tissues relative to age matched control tissues” value in assay [3] (then control media, plateau, p<0.0001) is on record as approximately 50%. In addition, the development of arrhythmias entry in assay [2] (low MBCD concentration 0.5 mM (control media), 5 days) is on record as “did not develop arrhythmias”. For the same compound, in assay [2] (media containing both MBCD and glucose (5mM), 5 days), the “presence of arrhythmias at endpoint” value is given as “arrhythmias were also induced”.
